Test results: patent US20040175722A1, “Methods and compositions for reducing screening in oligonucleotide-directed nucleic acid sequence alteration” (priority 2002, published 2004)

What was measured:
[1] = system: chromosomal hygromycin mutant gene in LSY678IntHyg(rep)β cells; test: Dual targeting protocol: correction efficiency (C.E.) of the chromosomal hygromycin mutation (Example 4); assay type: cell-based, yeast; settings: LSY678IntHyg(rep)β + RAD51 expression plasmid; HU and TSA; compared with FIG. 3
[2] = system: mutant hygromycin resistance gene in Mata+IntHYG(rep)eGFP; test: Yeast cell targeting assay: oligonucleotide-directed alteration of the integrated hygromycin-eGFP target; assay type: cell-based; settings: for Alteration per 10^5 Aureobasidin^R colonies: average of four experiments with standard deviation
[3] = system: mutated Hyg(rep)eGFP target in Mata-intHyg(rep)eGFP/βYAC; test: Dual oligonucleotide experiment: conversion efficiency for the hygromycin target (Example 2); assay type: cell-based, yeast
human β-globin gene [4] = test: Dual targeting protocol: second-site editing of the YAC β-globin gene in hygromycin-resistant colonies (SNaPshot, sequencing); settings: RAD51 overexpression; HU and TSA
human β-globin gene [5] = test: Dual oligonucleotide experiment: screen of hygromycin-resistant colonies for alteration of the β-globin target in the βS YAC (PCR, SNaPshot); settings: in hygromycin-selected population; with or without Rad51 overexpression

Substance: 5′-G*T*A* GAAACCATCGGCGCAGCTATTTACCCGCAGGACGTATCCACGCCCTCCTACATCGAAGCTGAAAGCAC*G *A*G-3′ [Hyg3S/74NT]
- effect of RAD51 expression on hygromycin correction efficiency [1]: increases
- Fold correction (relative to Hyg3S/74T) [2]: 4.0x
- Alteration per 10^5 Aureobasidin^R colonies [2]: 0.89 ± 1.3 per 10^5 Aureobasidin^R colonies
- Hygromycin Alteration Efficiency (/10^5) ([3]; βS-378m Experiment, Mata-intHyg(rep)eGFP/βYAC (HU + TSA)): 12.79 /10^5
- Hygromycin Alteration Efficiency (/10^5) ([3]; βS-378m Experiment, Mata-intHyg(rep)eGFP/βYAC + pYNARad51 (HU + TSA)): 96.96 /10^5
- Hygromycin Alteration Efficiency (/10^5) ([3]; βS-386m Experiment, Mata-intHyg(rep)eGFP/βYAC (HU + TSA)): 12.35 /10^5
- Hygromycin Alteration Efficiency (/10^5) ([3]; βS-386m Experiment, Mata-intHyg(rep)eGFP/βYAC, no HU or TSA): 3.22 /10^5

Substance: 5′-C*T*C* GTGCTTTCAGCTTCGATGTAGGAGGGCGTGGATACGTCCTGCGGGTAAATAGCTGCGCCGATGGTTTC *T*A*C-3′ [Hyg3S/74T]
- Fold correction (relative to Hyg3S/74T) [2]: 1x
- Alteration per 10^5 Aureobasidin^R colonies [2]: 0.22 ± 0.3 per 10^5 Aureobasidin^R colonies

Substance: 5′-T*A*A* CGGCAGACTTCTCCACAGGAGTCAGGTGCACCGTGGTGTCTGTTTGAGGTTGCTAGTGAACACAG*T *T*G-3′ [βS-378m]
- cells bearing the corrected hygromycin that also contain the edited β-globin gene (human β-globin gene [4]): approximately 10%
- alteration efficiency of the β-globin gene relative to alteration of the hygromycin target (human β-globin gene [5]): approximately 10 fold

Substance: 5′-G*C*C* TCACCACCAACTTCATCCACGTTCACCTTGCCTCACAGGGCAGTAACGGCAGACTTCTCCACAGG*A *G*T-3′ [βS-386m]
- alteration efficiency of the β-globin gene relative to alteration of the hygromycin target (human β-globin gene [5]): approximately 10 fold
